Assay results from patent publication US7566787B2, “Small molecule cyclin D1 ablative agents” (The Ohio State University, priority 2004, dated 2009).
Peptide text beside a SMILES is read from it. * marks the point of attachment. Cbz = O=C(OCc1ccccc1)*

Tests used:
[1] = test system: cyclin D1; test: Western blot analysis of cyclin D1 expression in MCF-7 cells; type: cell-based, human; settings: for minimum concentration required for the complete ablation of cyclin D1 / effect of co-treatment on TG- and Δ2-TG-induced cyclin D1 ablation: 24 h; for minimum concentration required for the complete ablation of cyclin D1: 5% FBS; for effect of co-treatment on TG- and Δ2-TG-induced cyclin D1 ablation: with 40 μM TG or 30 μM Δ2-TG; for IC50: western blot data, read-out: IC50 for WB
Experimental: Western Blot Analysis. MCF-7 or MDA-MB-231 cells were seeded in 10% FBS-containing DMEM-F-12 for 24 h and treated with various agents as indicated. After individual treatments for 24 h, both the incubation medium and adherent cells in T-25 or T-75 flasks were scraped and collected by centrifugation at 2,000×g for 10 min. The pellets were recovered, placed on ice, and triturated with 20 to 50 μl of a chilled lysis buffer (M-PER® Mammalian Protein Extraction Reagent, Pierce, Rockford, Ill.) to which was added 1% protease inhibitor cocktail (set III, EMD Biosciences, Inc. San Diego, Calif.). After a 30 min-incubation on ice, the mixture was centrifuge at 16,100×g for 3 min. Two μl of the suspension was taken for protein analysis using the Bradford assay kit (Bio-Rad, Hercules, Calif.). To the remaining solution was added the same volume of 2× SDS-PAGE sample loading buffer (100 mM Tris-HCl, pH 6.8, 4% SDS, 5% β-mercaptoethanol 20% glycerol, and 0.1% bromophenol blue). The mixture was boiled for 10 min. Equal amounts of proteins were loaded onto 10% SDS-PAGE gels. After electrophoresis, protein bands were transferred to nitrocellulose membranes in a semi-dry transfer cell. The transblotted membrane was blocking with TBST [Tris-buffered saline (TBS) containing 0.1% Tween 20] containing 5% nonfat milk for 90 min, and the membrane was incubated with the appropriate primary antibody in TBST-5% nonfat milk at 4° C. overnight. After washing three times with TBST for a total of 45 min, the transblotted membrane was incubated with goat anti-rabbit or anti-mouse IgG-horseradish peroxidase conjugates (diluted 1:1000) for 1 h at room temperature and washed four times with TBST for a total of 1 h. The immunoblots were visualized by enhanced chemiluminescence.

[2] = test system: MCF-7 cells; test: MTT cell viability assay; type: cell-based; settings: Homo sapiens, MCF7, cell viability data, read-out: IC50 for MTT
Experimental: Cell viability analysis. The effect of individual test agents on cell viability was assessed by using the MTT [3-(4,5-dimethylthiazol-2-yl)-2,5-diphenyl-2H-tetrazolium bromide] assay in six replicates. Cells were seeded and incubated in 96-well, flat-bottomed plates in DMEM-F12 media with 10% FBS for 24 h, and were exposed to various concentrations of test agents dissolved in DMSO (final DMSO concentration, 0.1%) in 5% FBS-supplemented DMEM-F12 medium. Controls received DMSO vehicle at a concentration equal to that of drug-treated cells. The medium was removed, replaced by 200 μl of 0.5 mg/ml of MTT in 10% FBS-containing RPMI-1640 medium, and cells were incubated in the CO2 incubator at 37° C. for 2 h. Supernatants were removed from the wells, and the reduced MTT dye was solubilized in 200 μl/well DMSO. Absorbance at 570 nm was determined on a plate reader.

Compound | IC50 [2] [µM] | IC50 [1] [µM] | other results
CC1(COc2ccc(CC3SC(=O)NC3=O)cc2)CCCCC1 (stereo not drawn) [CG, ciglitazone, reference compound] |  |  | minimum concentration required for the complete ablation of cyclin D1 [1]: 50 µM
O=C(Nc1ccccc1)c1cc([N+](=O)[O-])ccc1Cl [GW9962, reference compound] |  |  | effect of co-treatment on TG-mediated cyclin D1 down-regulation ([1]; concentrations three orders of magnitude higher than the IC50 in PPARγ binding): did not prevent; effect on cyclin D1 expression ([1]; high doses / comparable concentrations): no appreciable effect
CC(C)C[C@@H](C=O)NC(=O)[C@H](CC(C)C)NC(=O)[C@H](CC(C)C)NC(=O)OCc1ccccc1 [MG132, reference compound] (Cbz-Leu-Leu-Leu-aldehyde) |  |  | effect of co-treatment on Δ2-TG-6 cyclin D1 ablation ([1]; FIG. 8C): could be blocked; effect of co-treatment on TG- and Δ2-TG-induced cyclin D1 ablation [1]: effective in rescuing
Cn1cc(C2=C(c3ccc(Cl)cc3Cl)C(=O)NC2=O)c2ccccc21 [SB216763, reference compound] |  |  | effect of co-treatment on TG- and Δ2-TG-induced cyclin D1 ablation [1]: could not rescue
Cc1c(C)c2c(c(C)c1O)CCC(C)(COc1ccc(CC3SC(=O)NC3=O)cc1)O2 (stereo not drawn) [TG, troglitazone, reference compound] |  |  | time of complete ablation of cyclin D1 ([1]; 40 μM TG, 30 μM Δ2-TG): 24 h; minimum concentration required for the complete ablation of cyclin D1 [1]: 40 µM
C=CCOc1c(C)c(C)c2c(c1C)CCC(C)(COc1ccc(/C=C3\SC(=S)NC3=O)cc1)O2 (stereo not drawn) [TG-3] | 11 | 3.5 | 
C=CCOc1c(C)c(C)c2c(c1C)CCC(C)(COc1ccc(/C=C3\SC(=O)N(CC(=O)OC)C3=O)cc1)O2 (stereo not drawn) [TG-9] | > 50 | > 7.5 | 
Cc1c(C)c2c(c(C)c1OC/C=C/c1ccccc1)CCC(C)(COc1ccc(/C=C3\SC(=O)NC3=O)cc1)O2 (stereo not drawn) [TG-10] | 19 | > 7.5 | 
Cc1c(C)c2c(c(C)c1OC/C=C/c1ccccc1)CCC(C)(COc1ccc(/C=C3\SC(=O)NC3=O)cc1Br)O2 (stereo not drawn) [TG-11] | 28.5 | > 7.5 | 
Cc1c(C)c2c(c(C)c1OCc1ccccc1)CCC(C)(COc1ccc(/C=C3\SC(=O)NC3=O)cc1)O2 (stereo not drawn) [TG-12] | 16.7 |  | 
Cc1c(C)c2c(c(C)c1OC(=O)CCC(=O)O)CCC(C)(COc1ccc(/C=C3\SC(=O)NC3=O)cc1)O2 (stereo not drawn) [TG-13] | > 50 | > 7.5 | 
CC(C)=CCOc1c(C)c(C)c2c(c1C)CCC(C)(COc1ccc(/C=C3\SC(=O)NC3=O)cc1)O2 (stereo not drawn) [TG-14] | 14.5 | 7 | 
O=C1NC(=O)/C(=C/c2ccc(OCC3CCc4ccccc4C3)cc2)S1 (stereo not drawn) [TG-15] | 37 |  | 
COc1cc(/C=C2\SC(=O)NC2=O)ccc1OCC1(C)CCc2c(C)c(OCC=C(C)C)c(C)c(C)c2O1 (stereo not drawn) [TG-16] | 15 |  | 
CC(C)=CCOc1c(C)c(C)c2c(c1C)CCC(C)(COc1ccc(/C=C3\SC(=O)NC3=O)cc1C)O2 (stereo not drawn) [TG-17] | 14.5 |  | 
C=CCOc1c(C)c(C)c2c(c1C)CCC(C)(COc1ccc(/C=C3\SC(=O)NC3=O)cc1Br)O2 (stereo not drawn) [TG-27] | 28 | > 7.5 | 
C=CCOc1c(C)c(C)c2c(c1C)CCC(C)(COc1ccc(/C=C3\SC(=O)NC3=O)cc1OC)O2 (stereo not drawn) [TG-28] | 14.5 |  | 
C=CCOc1c(C)c(C)c2c(c1C)CCC(C)(COc1ccc(/C=C3\SC(=O)NC3=O)cc1C)O2 (stereo not drawn) [TG-29] | 23.5 |  | 
CC(C)=CCOc1c(C)c(C)c2c(c1C)CCC(C)(COc1ccc(/C=C3\SC(=O)NC3=O)cc1F)O2 (stereo not drawn) [TG-30] | 12.5 |  | 
CC(C)=CCOc1c(C)c(C)c2c(c1C)CCC(C)(COc1ccc(/C=C3\SC(=O)NC3=O)cc1-c1ccc(C(F)(F)F)cc1)O2 (stereo not drawn) [TG-31] | > 50 | > 7.5 | 
CC(C)=CCOc1c(C)c(C)c2c(c1C)CCC(C)(COc1ccc(/C=C3\SC(=O)NC3=O)cc1-c1ccc(F)cc1)O2 (stereo not drawn) [TG-32] | 19.5 | > 7.5 | 

Compound | IC50 [2] [µM] | IC50 [1] [µM] | other results
CCc1ccc(-c2cc(/C=C3\SC(=O)NC3=O)ccc2OCC2(C)CCc3c(C)c(OCC=C(C)C)c(C)c(C)c3O2)cc1 (stereo not drawn) [TG-33] | > 50 | > 7.5 | 
CC(C)=CCOc1c(C)c(C)c2c(c1C)CCC(C)(COc1c(Br)cc(/C=C3\SC(=O)NC3=O)cc1Br)O2 (stereo not drawn) [TG-34] | 15.5 |  | 
CC(C)=CCOc1c(C)c(C)c2c(c1C)CCC(C)(COc1ccc(/C=C3\SC(=O)NC3=O)cc1[N+](=O)[O-])O2 (stereo not drawn) [TG-35] | 38 |  | 
CC(C)=CCOc1c(C)c(C)c2c(c1C)CCC(C)(COc1ccc(C=C(C#N)C#N)cc1Br)O2 (stereo not drawn) [TG-36] | > 50 | > 7.5 | 
CC(C)=CCOc1c(C)c(C)c2c(c1C)CCC(C)(COc1ccc(/C=C/C(=O)O)cc1Br)O2 (stereo not drawn) [TG-37] | 34 | > 7.5 | 
CCOC(=O)C(C)(C)C(O)c1ccc(OCC2(C)CCc3c(C)c(OCC=C(C)C)c(C)c(C)c3O2)c(Br)c1 (stereo not drawn) [TG-38] | > 50 |  | 
CC(C)=CCOc1c(C)c(C)c2c(c1C)CCC(C)(COc1ccc(C(O)C(C)(C)C(=O)O)cc1Br)O2 (stereo not drawn) [TG-39] | 46 | > 7.5 | 
CCOC(=O)C(=Cc1ccc(OCC2(C)CCc3c(C)c(OCC=C(C)C)c(C)c(C)c3O2)c(Br)c1)C(=O)OCC (stereo not drawn) [TG-41] | > 50 | > 7.5 | 
CC(C)=CCOc1c(C)c(C)c2c(c1C)CCC(C)(COc1ccc(C=C(C(=O)O)C(=O)O)cc1Br)O2 (stereo not drawn) [TG-42] | > 50 | > 7.5 | 
CC(C)=CCOc1c(C)c(C)c2c(c1C)CCC(C)(COc1ccc(/C=C3\SC(=O)NC3=O)c3ccccc13)O2 (stereo not drawn) [TG-43] | 14.5 |  | 
COc1cc(/C=C2\SC(=O)NC2=O)cc(Br)c1OCC1(C)CCc2c(C)c(OCC=C(C)C)c(C)c(C)c2O1 (stereo not drawn) [TG-44] | 14.5 | > 7.5 | 
CCOc1cc(/C=C2\SC(=O)NC2=O)ccc1OCC1(C)CCc2c(C)c(OCC=C(C)C)c(C)c(C)c2O1 (stereo not drawn) [TG-45] | 13 |  | 
CC(C)=CCOc1c(C)c(C)c2c(c1C)CCC(C)(COc1ccc(/C=C3\SC(=S)NC3=O)c3ccccc13)O2 (stereo not drawn) [TG-46] | 37.3 |  | 
C=CCOc1c(C)c(C)c2c(c1C)CCC(C)(COc1cccc(/C=C3\SC(=O)NC3=O)c1)O2 (stereo not drawn) [TG-51] | 40 |  | 
C=CCOc1c(C)c(C)c2c(c1C)CCC(C)(COc1c(C)cc(/C=C3\SC(=O)NC3=O)cc1C)O2 (stereo not drawn) [TG-52] | 10.5 |  | 
C=CCOc1c(C)c(C)c2c(c1C)CCC(C)(COc1ccc(/C=C3\SC(=O)NC3=O)c3ccccc13)O2 (stereo not drawn) [TG-53] | 14.5 |  | 
C=CCOc1c(C)c(C)c2c(c1C)CCC(C)(COc1c(Br)cc(/C=C3\SC(=O)NC3=O)cc1OC)O2 (stereo not drawn) [TG-54] | 17.5 |  | 
C=CCOc1c(C)c(C)c2c(c1C)CCC(C)(COc1ccc(/C=C3\SC(=O)NC3=O)cc1OCC)O2 (stereo not drawn) [TG-55] | 17 | > 7.5 | 
CC(C)=CCOc1c(C)c(C)c2c(c1C)CCC(C)(COc1ccc(/C=C3\SC(=O)NC3=O)cc1Br)O2 (stereo not drawn) [TG-88] | 14.5 | > 7.5 | 
CC[C@H](C)[C@H](NC(=O)[C@H]([C@@H](C)CC)N(C)C(C)=O)C(=O)N[C@H](C(=O)N[C@@H](CC(C)C)C(=O)[C@@]1(C)CO1)[C@@H](C)O [epoxomicin, reference compound] |  |  | effect of co-treatment on TG- and Δ2-TG-induced cyclin D1 ablation [1]: effective in rescuing
CC(=O)N[C@@H](CSC(=O)[C@]1([C@@H](O)C(C)C)NC(=O)[C@H](C)[C@@H]1O)C(=O)O [lactacystin, reference compound] |  |  | effect of co-treatment on TG- and Δ2-TG-induced cyclin D1 ablation [1]: effective in rescuing
